Holding throughout (assay): growth of human tumour cells (NCI), 48 h
In experiment [1] the test system is A549 NSCLC.
Experiment [2] has as its system MCF7 breast.
Experiment [3] relates to HT29 colon.
For experiment [4], the system named is IGROV1 ovarian.
The subject of experiment [5] is PC-3 prostate.
Experiment [6] has as its system SN12C renal.
Experiment [7] has as its system SK-MEL-5 melanoma.
Experiment [8] deals with TK-10 renal.
In experiment [9] the test system is MALME-3M melanoma.
In experiment [10] the test system is 786-0 renal.

Molecules are shown by their SMILES.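 1) Cells in 96-well plates. 2) Compound, 48 h, 5 concentrations. 3) Linear interpolation between surrounding doses. 4) Unreached endpoint = highest concentration. GI50 marks 50% less growth. At the TGI there is no net growth.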 Where only a bound is given, the exact number is not on record here.

For the molecule `COc1ccc(-c2nsc3c2NC(=O)CC3c2ccc3c(c2)OCCO3)cc1` (stereo not given), the GI50 in [1] was 0.603 µM; in experiment [2], 0.371 µM; in [3] it was 0.419 µM; in experiment [4] it was 1.6 µM; in [5] it was 0.528 µM; in experiment [6] it was 0.776 µM. Also, the GI50 in experiment [7] is 0.37 µM; in [8] it was 1.87 µM; in experiment [9], 0.336 µM; in [10] it was 0.829 µM. The TGI in experiment [1] is over 100 µM; in experiment [2], over 100 µM; in [3] it was over 55.5 µM; in experiment [4] it was over 100 µM; in experiment [5], over 100 µM; in experiment [6], over 100 µM. For the same molecule, the TGI in experiment [7] is 5.86 µM; in [8], over 100 µM; in experiment [9], over 100 µM; in experiment [10], over 100 µM.
Regarding `COc1cccc(Sc2ccc([N+](=O)[O-])c3no[n+]([O-])c23)c1`, the GI50 is 36.1 µM in experiment [1]; 4.87 µM in [2]; 9.8 µM in [3]; 5.63 µM in experiment [4]; 16.9 µM in experiment [5]; 16.9 µM in experiment [6]. Also, the GI50 in experiment [7] was 15.1 µM; in experiment [8] it was 10.9 µM; in experiment [9], 4.67 µM; in experiment [10], 19.5 µM. Further, the TGI in experiment [1] is over 100 µM; in experiment [2], 20.6 µM; in experiment [3], over 55.6 µM; in experiment [4], 20.8 µM; in experiment [5], over 54.5 µM; in [6], 46.8 µM. Also, the TGI stood at 29.5 µM in experiment [7], 24.7 µM in experiment [8], 15 µM in experiment [9] and 34.8 µM in experiment [10].
Regarding `C=C1C(=O)O[C@H]2[C@H]1CC/C(COC(=O)c1cn(C)c3ccccc13)=C\CC[C@@]1(C)O[C@@H]21`, the GI50 was 1.82 µM in [1]; 0.4 µM in experiment [2]; 0.526 µM in [3]; 0.692 µM in experiment [4]; 1.47 µM in [5]; 0.719 µM in experiment [6]. Besides, the GI50 in experiment [7] was 1.42 µM; in experiment [8], 1.1 µM; in experiment [9], 1.62 µM; in experiment [10] it was 1.46 µM. Moreover, the TGI in experiment [1] turned out to be 4.23 µM; in experiment [2] it was 1.98 µM; in [3] it was 1.78 µM; in [4], 2.58 µM; in experiment [5], 4.29 µM; in experiment [6], 2.3 µM. For the same molecule, the TGI in experiment [7] turned out to be 2.77 µM; in [8] it was 2.3 µM; in [9] it was 3.34 µM; in experiment [10], 2.88 µM.
Take `O=C(Nc1ccc2ncnc(Nc3ccc(Oc4cccc(F)c4)c(Cl)c3)c2c1)c1ccc(CN2CCOCC2)cc1`: the GI50 was 2.35 µM in [1]; 1.83 µM in [2]; 2.97 µM in experiment [3]; 1.4 µM in [4]; 2.24 µM in [5]; 2.6 µM in experiment [6]. Further, the GI50 is 1.74 µM in experiment [7], 3.08 µM in experiment [8], 2.01 µM in [9] and 1.97 µM in [10]. The TGI in [1] was 10.3 µM; in experiment [2] it was 5.64 µM; in experiment [3], 11.7 µM; in [4], 5.5 µM; in [5], 10.6 µM; in [6], over 100 µM. The TGI in [7] came to 3.25 µM; in experiment [8], 13.5 µM; in experiment [9], 5.2 µM; in experiment [10], 4.33 µM.
In the case of `c1ccc2cc(Cn3cc[n+](Cc4ccc5ccccc5c4)c3)ccc2c1`, the GI50 in experiment [1] was 7.97 µM; in experiment [2] it was 1.87 µM; in experiment [3] it was 0.555 µM; in experiment [4], 0.659 µM; in [5], 0.535 µM; in experiment [6], 0.846 µM. In addition, the GI50 in experiment [7] is 0.258 µM; in [8], 3.32 µM; in experiment [9], 0.413 µM; in [10], 4.4 µM. For the same molecule, the TGI was 22.9 µM in [1]; 10.5 µM in experiment [2]; 5.74 µM in experiment [3]; 3.75 µM in experiment [4]; 5.6 µM in experiment [5]; 7.03 µM in experiment [6]. The TGI in experiment [7] was 0.916 µM; in experiment [8], 14.3 µM; in experiment [9], 2.49 µM; in [10], 19 µM.
Take `O=C1OCC(c2ccc(O)cc2)=C1c1cc(O)c(O)c(O)c1`: the GI50 was over 100 µM in experiment [1]; 77.5 µM in [2]; over 100 µM in [3]; over 100 µM in [4]; over 100 µM in [5]; 54 µM in experiment [6]. The GI50 in experiment [7] is over 100 µM; in experiment [8], over 100 µM; in experiment [9], over 100 µM; in experiment [10], 62.5 µM. The TGI in [1], in experiment [2], in experiment [3], in [4], in [5] and in [6] was over 100 µM throughout. For the same molecule, the TGI in [7], in [8], in [9] and in [10] was over 100 µM in each case.
In the case of `Oc1[nH]c(N=C2N=c3ccccc3=N2)c2ccccc12`, the GI50 in [1] was 8.67 µM; in [2], 2.65 µM; in experiment [3], 9.18 µM; in [4], 1.28 µM; in experiment [5], 6.34 µM; in [6], 12.8 µM. Besides, the GI50 is 8.57 µM in experiment [7], 21 µM in [8], 9.69 µM in experiment [9] and 17.2 µM in [10]. Moreover, the TGI is 41.1 µM in experiment [1]; 23.7 µM in [2]; 39.7 µM in [3]; 33.7 µM in experiment [4]; 73.8 µM in [5]; 36.7 µM in experiment [6]. The TGI in experiment [7] is over 100 µM; in experiment [8], 55.4 µM; in experiment [9] it was 37.6 µM; in experiment [10] it was 39.6 µM.

These data come from PubChem BioAssay (NCI).
